Measurements as given in US20120225062A1 (priority 2011, published 2012).

The molecules below were run on KMS11 (human myeloma cell line) (assay: Cell Proliferation Assay (CellTiter-Glo, 3 days)). Details: KMS-11, 72 h, KMS11-luc cells.
Format: cell-based
Method: KMS11 (human myeloma cell line), were cultured in IMDM supplemented with 10% FBS, sodium pyruvate and antibiotics. Cells were plated in the same medium at a density of 2000 cells per well into 96 well tissue culture plates, with outside wells vacant, on the day of assay.
Test compounds supplied in DMSO were diluted into DMSO at 500 times the desired final concentrations before dilution into culture media to 2 times final concentrations. Equal volumes of 2× compounds were added to the cells in 96 well plates and incubated at 37° C. for 3 days.
After 3 days plates were equilibrated to room temperature and equal volume of CellTiter-Glow Reagent (Promega) was added to the culture wells. The plates were agitated briefly and luminescent signal was measured with luminometer.
Using the procedures of Cell Proliferation Assay, the EC50 concentrations of compounds of the examples were determined in KMS11 cells as shown in Table 4.

| Compound | EC50 |
| --- | --- |
| COc1cc(F)c(-c2nc(C(=O)Nc3cnccc3[C@H]3C[C@@H](N)[C@H](O)[C@@H](C)C3)ccc2F)c(F)c1 [Example 5, N-(4-((1R,3R,4R,5S)-3-amino-4-hydroxy-5-methylcyclohexyl)pyridin-3-yl)-6-(2,6-difluoro-4-methoxyphenyl)-5-fluoropicolinamide] | 0.062 µM |
| N[C@H]1CCC[C@@H](c2ccncc2NC(=O)c2ccc(F)c(-c3c(F)cc(OC4CCOCC4)cc3F)n2)C1 [Example 150, N-(4-((1R,3S)-3-aminocyclohexyl)pyridin-3-yl)-6-(2,6-difluoro-4-(tetrahydro-2H-pyran-4-yloxy)phenyl)-5-fluoropicolinamide] | 0.324 µM |
| CC(C)OCc1cc(F)c(-c2nc(C(=O)Nc3cnccc3[C@@H]3CCC[C@H](N)C3)ccc2F)c(F)c1 [Example 155, N-(4-((1R,3S)-3-aminocyclohexyl)pyridin-3-yl)-6-(2,6-difluoro-4-(isopropoxymethyl)phenyl)-5-fluoropicolinamide] | 0.264 µM |
| C[C@@H]1C[C@H](N)C[C@H](c2ccncc2NC(=O)c2ccc(F)c(-c3c(F)cc(C(C)(C)O)cc3F)n2)C1 [Example 236, N-(4-((1R,3S,5S)-3-amino-5-methylcyclohexyl)pyridin-3-yl)-6-(2,6-difluoro-4-(2-hydroxypropan-2-yl)phenyl)-5-fluoropicolinamide] | 0.013 µM |
| C[C@H]1C[C@@H](c2ccncc2NC(=O)c2ccc(F)c(-c3c(F)cc(C4(O)CCOCC4)cc3F)n2)C[C@@H](N)[C@@H]1O [Example 122, N-(4-((1R,3R,4R,5S)-3-amino-4-hydroxy-5-methylcyclohexyl)pyridin-3-yl)-6-(2,6-difluoro-4-(4-hydroxytetrahydro-2H-pyran-4-yl)phenyl)-5-fluoropicolinamide] | 0.083 µM |
| CCc1cc(F)c(-c2nc(C(=O)Nc3cnccc3[C@H]3C[C@@H](N)[C@H](O)[C@@H](C)C3)ccc2F)c(F)c1 [Example 39, N-(4-((1R,3R,4R,5S)-3-amino-4-hydroxy-5-methylcyclohexyl)pyridin-3-yl)-6-(4-ethyl-2,6-difluorophenyl)-5-fluoropicolinamide] | 0.055 µM |
| C[C@H]1C[C@@H](c2ccncc2NC(=O)c2ccc(F)c(-c3c(F)cc(C(C)(C)O)cc3F)n2)C[C@@H](N)[C@@H]1O [Example 66, N-(4-((1R,3R,4R,5S)-3-amino-4-hydroxy-5-methylcyclohexyl)pyridin-3-yl)-6-(2,6-difluoro-4-(2-hydroxypropan-2-yl)phenyl)-5-fluoropicolinamide] | 0.011 µM |
| CSc1cc(F)c(-c2nc(C(=O)Nc3cnccc3[C@@H]3C[C@H](C)C[C@H](N)C3)ccc2F)c(F)c1 [Example 223, N-(4-((1R,3S,5S)-3-amino-5-methylcyclohexyl)pyridin-3-yl)-6-(2,6-difluoro-4-(methylthio)phenyl)-5-fluoropicolinamide] | 0.169 µM |
| C[C@H]1C[C@@H](c2ccncc2NC(=O)c2ccc(F)c(-c3c(F)cc(C4(O)CC4)cc3F)n2)C[C@@H](N)[C@@H]1O [Example 158, N-(4-((1R,3R,4R,5S)-3-amino-4-hydroxy-5-methylcyclohexyl)pyridin-3-yl)-6-(2,6-difluoro-4-(1-hydroxycyclopropyl)phenyl)-5-fluoropicolinamide] | 0.064 µM |
| C[C@H]1C[C@@H](c2ccncc2NC(=O)c2ccc(F)c(-c3c(F)cc(C(F)F)cc3F)n2)C[C@@H](N)[C@@H]1O [Example 58, N-(4-((1R,3R,4R,5S)-3-amino-4-hydroxy-5-methylcyclohexyl)pyridin-3-yl)-6-(4-(difluoromethyl)-2,6-difluorophenyl)-5-fluoropicolinamide] | 0.042 µM |
| COCCOc1cc(F)c(-c2nc(C(=O)Nc3cnccc3[C@@H]3CCC[C@H](N)C3)ccc2F)c(F)c1 [Example 151, N-(4-((1R,3S)-3-aminocyclohexyl)pyridin-3-yl)-6-(2,6-difluoro-4-(2-methoxyethoxy)phenyl)-5-fluoropicolinamide] | 0.34 µM |
| CSc1cc(F)c(-c2nc(C(=O)Nc3cnccc3[C@H]3C[C@@H](N)[C@@H](O)[C@@H](C)C3)ccc2F)c(F)c1 [Example 19, N-(4-((1R,3R,4S,5S)-3-amino-4-hydroxy-5-methylcyclohexyl)pyridin-3-yl)-6-(2,6-difluoro-4-(methylthio)phenyl)-5-fluoropicolinamide] | 0.074 µM |

Continued by falling EC50, values first:

| EC50 | Compound |
| --- | --- |
| 3.88 µM | C[C@H]1C[C@@H](c2ccncc2NC(=O)c2ccc(F)c(-c3c(F)cc([S@@+](C)[O-])cc3F)n2)C[C@@H](N)[C@@H]1O [Example 28] |
| 0.383 µM | C[C@@H]1C[C@H](N)C[C@H](c2ccncc2NC(=O)c2ccc(F)c(-c3c(F)cc(S(C)(=O)=O)cc3F)n2)C1 [Example 1, N-(4-((1R,3S,5S)-3-amino-5-methylcyclohexyl)pyridin-3-yl)-6-(2,6-difluoro-4-(methylsulfonyl)phenyl)-5-fluoropicolinamide] |
| 0.071 µM | COc1cc(F)c(-c2nc(C(=O)Nc3cnccc3[C@@H]3C[C@H](C)C[C@H](N)C3)ccc2F)c(F)c1 [Example 11, N-(4-((1R,3S,5S)-3-amino-5-methylcyclohexyl)pyridin-3-yl)-6-(2,6-difluoro-4-methoxyphenyl)-5-fluoropicolinamide] |
| 0.059 µM | C[C@H]1C[C@@H](c2ccncc2NC(=O)c2ccc(F)c(-c3c(F)cc(C4(F)CCOCC4)cc3F)n2)C[C@@H](N)[C@@H]1O [Example 127, N-(4-((1R,3R,4R,5S)-3-amino-4-hydroxy-5-methylcyclohexyl)pyridin-3-yl)-6-(2,6-difluoro-4-(4-fluorotetrahydro-2H-pyran-4-yl)phenyl)-5-fluoropicolinamide] |
| 0.046 µM | Cc1cc(F)c(-c2nc(C(=O)Nc3cnccc3[C@@H]3C[C@H](C)C[C@H](N)C3)ccc2F)c(F)c1 [Example 8, N-(4-((1R,3S,5S)-3-amino-5-methylcyclohexyl)pyridin-3-yl)-6-(2,6-difluoro-4-methylphenyl)-5-fluoropicolinamide] |
| 0.042 µM | C[C@@H]1C[C@H](N)C[C@H](c2ccncc2NC(=O)c2ccc(F)c(-c3c(F)cc(C(F)F)cc3F)n2)C1 [Example 57, N-(4-((1R,3S,5S)-3-amino-5-methylcyclohexyl)pyridin-3-yl)-6-(4-(difluoromethyl)-2,6-difluorophenyl)-5-fluoropicolinamide] |
| 0.031 µM | C[C@H]1C[C@@H](c2ccncc2NC(=O)c2ccc(F)c(-c3c(F)cc(C4COC4)cc3F)n2)C[C@@H](N)[C@@H]1O [Example 56, N-(4-((1R,3R,4R,5S)-3-amino-4-hydroxy-5-methylcyclohexyl)pyridin-3-yl)-6-(2,6-difluoro-4-(oxetan-3-yl)phenyl)-5-fluoropicolinamide] |
| 0.027 µM | C[C@@H]1C[C@H](N)C[C@H](c2ccncc2NC(=O)c2ccc(F)c(-c3c(F)cc(C4(O)CCOCC4)cc3F)n2)C1 [Example 121, N-(4-((1R,3S,5S)-3-amino-5-methylcyclohexyl)pyridin-3-yl)-6-(2,6-difluoro-4-(4-hydroxytetrahydro-2H-pyran-4-yl)phenyl)-5-fluoropicolinamide] |
| 0.023 µM | C[C@H]1CN(c2ccncc2NC(=O)c2ccc(F)c(-c3c(F)cc(F)cc3F)n2)C[C@@H](N)[C@@H]1O [Example 218, N-(4-((3R,4R,5S)-3-amino-4-hydroxy-5-methylpiperidin-1-yl)pyridin-3-yl)-5-fluoro-6-(2,4,6-trifluorophenyl)picolinamide] |
